Measurements taken from patent US20220323402A1, “TREATMENT, AMELIORATION OR PREVENTION OF A VIRAL INFECTION” (priority 2019, published 2022).

Legend:
ZIKV [1] = experiment: qPCR of ZIKV RNA in HepG2 cells treated before, during or after infection (viral entry step); type: cell-based, Zika virus; settings: HepG2, moi=3, pretreatment, adsorption or internalization, qPCR 2 hours after infection; FIG. 17
Description: FIG. 17: Q-PCR quantification of ZIKV RNA in HepG2 cells treated with CH223191 or DMSO (vehicle) before infection, during infection, or after the infection with ZIKV (moi=3). 2 h p.i., cells were harvested for RNA extraction and qPCR analysis to determine the level of ZIKV RNA. Data represent the mean+s.e.m. from three independent experiments. P values were determined by Student's t-test.
To investigate whether AHR inhibition interferes with the viral entry step, we treated HepG2 cells with CH223191 at different early time points of ZIKV infection (pretreatment before viral entry, during viral adsorption and during virus internalization) and quantified ZIKV by qPCR 2 hours after infection. We detected no effect of CH223191 at these early timepoints during ZIKV infection as determined by qPCR, showing that AHR contributes to later stages of ZIKV replication (FIG. 17).
RNA was extracted using the RNAeasy kit (Qiagen). cDNA was synthesized using the High-Capacity cDNA Reverse Transcription kit (Applied Biosystems) and qPCR was performed using TaqMan Fast Advanced Master Mix (Applied Biosystems). Gene expression was normalized to GAPDH. […] RNA pellets were resuspended in RNase-free water and quantified by spectrophotometry (NanoDrop—Thermo Scientific) and stored at −80° C. […] Quantification was compared with threshold cycle (Ct) value with a ZIKV plasmid standard curve.

[2] = tested on: ZIKV (Puerto Rico strain, PRVABC59); experiment: Flow cytometry quantification of HepG2 cells positive for Flavivirus antigen after ZIKV infection; type: cell-based, Zika virus; settings: HepG2, ZIKV PRVABC59 moi=1, 48 h, pre-treated; FIG. 7C
Description: FIGS. 7A-7K: AHR signaling boosts ZIKV replication in vitro. Flow cytometry quantification of HepG2 cells positive for Flavivirus antigen. HepG2 cells were pre-treated with different concentrations of I3S, CH223191 or DMSO (vehicle) and infected with ZIKV (moi=1) for 48 h. Plots shown are representative of one experiment. Bar graphs (FIG. 7C) represent the mean+s.e.m. of Flavivirus antigen positive cells from at least three independent experiments. P values were determined by a one-way ANOVA followed by Tukey's post-hoc test.
(§1) Stock solutions of I3S and CH223191 were prepared in DMSO, aliquoted and stored according to manufacturer's instructions. For CH223191, cells were pre-treated for 90 minutes and then used for further studies. For I3S, cells were pre-treated overnight.
Cells were fixed and permeabilized using Cytofix/Cytoperm (BD Biosciences). Secondary antibody for flow cytometry was phycoerythrin (PE) goat anti-mouse IgG (BD Biosciences) at a concentration of 1:200. Cells were analyzed on a Guava easyCyte flow cytometer and data was processed using FlowJo software.

ZIKV [3] = experiment: Infectious virus particles in supernatants of ZIKV-infected HepG2 cells, standard plaque assay in Vero cells; type: cell-based, Zika virus
Description: (§2) FIG. 8: Quantification of infectious virus particles in the supernatants of HepG2 cells pre-treated with CH2213191 or vehicle-treated using a standard plaque assay in Vero cells. Data represent the mean+s.e.m. from three independent experiments. P values were determined by a one-way ANOVA followed by Tukey's post-hoc test.
as §2, with “14:” for “8:”, “48 h p.i. after infection” for “pre-treated”, “ZIKV INEVH116141 (Argentina)” for “CH2213191 or vehicle-treated”
as §2, with “15:” for “8:”, “48 h p.i. after infection” for “pre-treated”, “ZIKV BeH815744 (Brazil)” for “CH2213191 or vehicle-treated”
as §2, with “16:” for “8:”, “48 h p.i. after infection” for “pre-treated”, “ZIKV MR 766 (Uganda)” for “CH2213191 or vehicle-treated”
as §1
C6/36 mosquito cells were infected at a multiplicity of infection of 1 with ZIKV Puerto Rico strain (PRVABC59, ATCC isolate gift from MIT laboratory); viral isolate from Argentina (INEVH116141) provided by Instituto Nacional de Enfermedades Virales Humanas, Pergamino, Argentina, ZIKV Brazil (BeH815744) gene bank accession number KU365780.1 gently provided by Prof. José Luiz Proença Modena and Daniele Durigon and the reference ZIKV strain from Uganda (MR766), respectively, for 1 h at 37° C. in serum-free DMEM. Quantification of viral titers was performed by a standard plaque assay in Vero cells.

DENV-2 = experiment: DENV viral RNA (qPCR) and viral protein (immunofluorescence) in A549 cells; type: cell-based, dengue virus; settings: FIGS. 64A-64B and 65A-65C
From the text: FIGS. 64A and 64B: A549 cells positive for Flavivirus antigen determined by immunofluorescence. Cells infected with DENV-2 from FIG. 63C were fixed, stained against Flavivirus envelope protein and visualized under a fluorescence microscope (FIG. 64A). Images of random fields of view were acquired and the number of cells positive for Flavivirus antigen was counted using FIJI (FIG. 64B).
FIGS. 65A-65C: RNA expression of DENV-2 (FIG. 65A), AHR (FIG. 65B) and CYP1A1 (FIG. 65C) determined by qPCR. A549 cells were infected with DENV-2 (moi=0.1) and 48 h p.i. they were harvested for qPCR analysis.

Cc1ccccc1/N=N/c1ccc(NC(=O)c2ccnn2C)c(C)c1 [CH223191, 2-Methyl-2H-pyrazole-3-carboxylic Acid (2-methyl-4-o-tolylazo-phenyl)-amide] was tested, and the “effect on ZIKV RNA at early timepoints of infection” value (ZIKV [1]) was “no effect”, the “reduction of ZIKV replication, HepG2 cells expressing viral antigen” value [2] was “more than 50%” and the “replication of ZIKV isolate from Argentina (INEVH116141)” value (ZIKV [3]; HepG2, 48 h p.i., FIG. 14) was “suppressed”. For the same molecule, the “replication of ZIKV isolate from Brazil (BeH815744)” value (ZIKV [3]; HepG2, 48 h p.i., FIG. 15) was “suppressed”, the “replication of reference ZIKV strain from Uganda (MR 766)” value (ZIKV [3]; HepG2, 48 h p.i., FIG. 16) was “suppressed” and the “reduction of ZIKV replication, infective virus particles released in HepG2 cell culture supernatants” value (ZIKV [3]; HepG2, ZIKV PRVABC59, FIG. 8) was “more than 50%”. The “DENV viral RNA and viral protein expression levels” value (DENV-2) was “inhibition”.
